# Data: patent US20110282078A1, “CYCLOHEXENE 1,4 -CARBOXYLATES” (Draths Corporation, priority 2009, published 2011)
# Assay: approximate solubility at room temperature in ethyl acetate
# Type: physicochemical
# Conditions: organic solvent or mixture
# Experimental: A stirred suspension of dried (less than 5 weight percent of water), crude cis,cis or cis,trans muconic acid (200 g) in tetrahydrofuran (THF) (1.8 liter (l)) is heated to 50° C., Within 45 minutes at 50° C. most of the solid dissolves. Activated charcoal (35 g) is added. After 1 hour, the hot suspension is clarified by filtration through a bed of Celite™ diatomaceous earth. The filtrate is evaporated to dryness and the residue is dried under high vacuum to yield pure cis,cis or cis,trans muconic acid (166 g, 83 percent mass recovery). In the case of cis,cis muconic acid, any traces of cis,trans muconic acid can be removed by resuspending the solid twice in refluxing ethyl acetate, which is removed each time by decantation from the cooled solution. The approximate solubilities at room temperature in ethyl acetate are 1 mg/ml for cis,cis muconic acid, 5 mg/ml for cis,trans muconic acid, and 0.1 mg/ml for trans,trans muconic acid.
row,solubility [µg/mL],SMILES
1,~5000,"O=C(O)/C=C\C=C\C(=O)O [cis,trans muconic acid]"
2,~100,"O=C(O)/C=C/C=C/C(=O)O [trans,trans muconic acid]"
3,~1000,"O=C(O)/C=C\C=C/C(=O)O [cis,cis muconic acid]"
